Experiments:
[1] = system: BCR-ABL1-positive BRCA1-deficient 32Dc13 murine hematopoietic cell line that expresses GFP-RAD52; experiment: GFP-RAD52 foci formation in response to cisplatin; format: cell-based; settings: compound 2.5 μM
Procedure: GFP-RAD52 foci formation was measured in BCR-ABL1-positive BRCA1-deficient 32Dc13 murine hematopoietic cell line that expresses GFP-RAD52 (Cramer-Morales et al., 2013, Blood 122, 1293-1304). RAD51 foci formation was measured in parental 32Dc13.
Both cell lines were cultured in IMDM plus 10% FBS. […] After 4 h of incubation, the cells were treated with 3 μg/mL cisplatin for 16 h. Following cisplatin treatment, cytospins were prepared using polylysine coated slides (Thermo Scientific). DNA was counterstained with DAPI. To detect RAD51 foci, cells were stained with an anti-RAD51 antibody (Thermo Scientific), followed by a secondary antibody conjugated with AlexaFluor 594. RAD51 and GFP-RAD52 foci were visualized with an inverted Olympus IX70 fluorescence microscope equipped with a Cooke Sensicam QE camera (The Cooke Co., Auburn Hills, Mich., USA). Images from 25-60 cells/group were processed using SlideBook 3.0 (Intelligent Imaging Innovation).
In response to DNA damage, RAD52 accumulates in the nucleus forming distinct structures known as foci (Essers et al., 2002, EMBO J. 21, 2030-2037; Liu et al., 2000, EMBO Rep 1, 85-90). The foci represent RAD52 complexes with DNA repair intermediates. Inhibitors of RAD52 may decrease RAD52 foci formation by disrupting its interaction with DNA substrates.

salmon sperm DNA = experiment: Acridine orange displacement assay for DNA binding
Procedure: The selected compounds were tested their abilities to bind DNA to rule out DNA binding as an undesired mechanism of action. The compounds in varied concentrations were added into 30 μl reaction mixtures containing 50 nM acridine orange and 6 μg/ml salmon sperm DNA, 10 mM HEPES, pH 7.5; 1 mM EDTA pH 7.5; 100 mM NaCl in 384-well plates, and the reactions were incubated at room temperature for 20 min followed by fluorescence polarization measurement using an EnVision (Perkin Elmer) equipped with a 480 nm excitation filter and 535 nm S and P emission filters with a D505 FP/D535 dichroic mirror. Mitoxantrone (10 μM) was used as a positive control. The S and P values are processed with the standard fluorescence polarization calculation formula (mP=1000*(S-G*P)/(S+G*P) where G is the G-factor and is approximately 1.

[2] = system: BRCA1/2-deficient cell lines; experiment: Growth of BRCA1/2-deficient cell lines (summary over tested lines); format: cell-based, Human
Procedure: (§1) BxPC3 cells were kept in RPMI 1640 (ATCC) media supplemented with 10% FBS (Gibco). Capan-1/BxPC3 Capan-1 cells were kept in IMDM (ATCC) media containing 20% FBS (GIBCO). […] cells were kept in 48.5% RPMI1640 (ATCC), 48.5% MEGM (Clonetics/Lonza, MEGM kit, CC-3150) and 3% FBS (GIBCO) respectively. Cells in log-phase were harvested and 100 μl cell suspensions were replated in a 96-well plate with a final density of 4000 cells/well. After overnight growth, cells were treated with indicated concentrations of compounds. Media containing the invariant concentration of compounds were refreshed every 3 days until cells were finally lysed by 30 μl/well of Promega CellTiter-Glo reagents and read on a Promega GloMax 96 reader on day 10 (9 days exposure).
as §1, with “(Gibco);” for “(Gibco). Capan-1/BxPC3”, “(GIBCO);” for “(GIBCO).”, “exposure). Promega CellTiter-Glo protocol is available on the web: www dot promega dot com/resources/protocols/technical-bulletins/0/celltiter-glo-luminescent-cell-viability-assay-protocol/” for “exposure).”
MDA-MB-436 cells were cultured in RPMI+10% FBS. BRCA-proficient and BRCA-deficient cells were plated on day 0 in triplicate at 5,000 cells/well. […] Cells were counted on day 4 on a hemocytometer, using Trypan Blue exclusion, and immediately were plated in a clonogenic assay at a density of 500 cells/well in a 6 well plate, in RPMI+10% FBS. […]

- DNA binding (salmon sperm DNA): did not bind DNA
SMILES: COc1ccc(OC)c(Nc2nc(NCCCO)c3ccccc3n2)c1 [D-G23, 3-((2-((2,5-dimethoxyphenyl)amino)quinazolin-4-yl)amino)propan-1-ol]
- fraction of cells with RAD52 foci (>5 foci) ([1]; cisplatin-treated, without inhibitor 38.7±10%): 19±0.4%
- fraction of cisplatin-treated cells without foci ([1]; without inhibitor 48.4±6.2%): 57.6±0.5%
- preferential inhibition of BRCA1/2-deficient cell lines (summary) [2]: preferentially inhibited at least two BRCA1/2-deficient cell lines

— US10738061B2, “Inhibitors of RAD52 recombination protein and methods using same” (Drexel University, priority 2015, dated 2020)
